Test results taken from patent US10457667B2, “Indolin-2-one derivatives” (Hoffmann-La Roche Inc., priority 2015, dated 2019).

Assays:
[1] = molecular target: T1, mouse ENT-1 transporter (Mus musculus, UniProt Q9JIM1); test: ENT1 adenosine uptake inhibition ([3H]-adenosine transport activity); assay type: cell-based; conditions: stable cells expressing mouse ENT-1; [2,8-3H]-adenosine 6 nM, 20 min
T1 construct: expressed in transfected cells
T1 sequence (Q9JIM1 1-460): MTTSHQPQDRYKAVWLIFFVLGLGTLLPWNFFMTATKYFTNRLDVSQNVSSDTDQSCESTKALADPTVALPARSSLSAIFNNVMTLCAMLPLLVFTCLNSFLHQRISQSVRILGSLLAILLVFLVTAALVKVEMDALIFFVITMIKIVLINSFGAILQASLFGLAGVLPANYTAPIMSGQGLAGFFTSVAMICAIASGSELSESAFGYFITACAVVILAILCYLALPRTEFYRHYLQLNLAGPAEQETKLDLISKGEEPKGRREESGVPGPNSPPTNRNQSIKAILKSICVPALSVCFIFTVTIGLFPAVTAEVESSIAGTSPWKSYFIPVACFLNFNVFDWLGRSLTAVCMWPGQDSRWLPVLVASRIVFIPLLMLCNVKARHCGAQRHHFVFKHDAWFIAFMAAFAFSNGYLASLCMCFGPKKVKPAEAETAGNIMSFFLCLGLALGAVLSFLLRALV
Method: To measure adenosine transport activity of ENT-1 mammalian cells, stable cells expressing the mouse ENT-1 transporter were plated on day 1 in 96-well culture plates at the density of 60,000 cells/well, in complete DMEM/F12 medium supplemented with glutamax, 10% FBS and 10 μg/ml puromycin. On day 2, the medium was aspirated and the cells were washed twice with uptake buffer (10 mM Hepes-Tris, pH 7.4 containing 150 mM NaCl, 1 mM CaCl2, 2.5 mM KCl, 2.5 mM MgSO4, 10 mM D-glucose) (UB). For inhibition experiments, cells were then incubated at RT with various concentrations of compounds with 1% DMSO final. Non-specific uptake was defined in the presence of 10 μM S-(4-Nitrobenzyl)-6-thioinosine (NBTI, Sigma Cat #N2255).
A solution containing [2,8-^3H]-adenosine 6 nM (40 Ci/mmol, American Radiolabeled chemicals Inc, Cat #ART 0287A) was then immediately added to the wells. The plates were then incubated for 20 min with gentle shaking and the reaction was stopped by aspiration of the mixture and washing (three times) with ice-cold UB. The cells were lysed by the addition of scintillation liquid, shaken 3 hours and the radioactivity in the cells was estimated using a microplates scintillation counter (TopCount NXT, Packard).

[2] = system: L-687,414-induced hyperlocomotion; test: L-687,414-induced hyperlocomotion; assay type: in vivo, mouse; conditions: mice; dose 30 mg/kg ip, 15 min before s.c. 50 mg/kg L-687,414
Method: The described compounds of formula I reduce L-687,414-induced hyperlocomotion. This was assessed by using a computerized Digiscan 16 Animal Activity Monitoring System (Omnitech Electronics, Columbus, Ohio) to quantify locomotor activity. Animals were kept under a 12 h light/dark cycle and experiments were performed during the light period. Each activity monitoring chamber consisted of a Plexiglas box (41×41×28 cm; W×L×H) with sawdust bedding on the floor surrounded by invisible horizontal and vertical infrared sensor beams. The test boxes were divided by a Plexiglas cross providing each mouse with 20×20 cm of moving space. Cages were connected to a Digiscan Analyzer linked to a computer that constantly collected the beam status information. Records of photocell beam interruptions for individual animals were taken every 5 min over the duration of the experimental session and the sum of the first 6 periods was used as the final parameter. At least 8 mice were used in each treatment group. Compounds were administered i.p 15 min before a s.c. injection of 50 mg/kg of L-687,414. […] Horizontal activity was then recorded for a 30-min time period. The % inhibition of L-687,414-induced hyperlocomotion was calculated according to the equation: ((Veh+L−687,414 horizontal activity−drug+L−687,414 horizontal activity)/Veh+L−687,414 horizontal activity)×100 […]

[3] = system: behaviors of compound-treated mice; test: SmartCube behavioral signature similarity analysis; assay type: in vivo, mouse
Text: authors described that hyperlocomotion induced by L-687,414 was inhibited by a series of known antipsychotic drugs. […] These findings predict antipsychotic activity for the present compounds, making them useful for the treatment of positive (psychosis) and negative symptoms of schizophrenia, substance abuse, alcohol and drug addiction, obsessive-compulsive disorders, cognitive impairment, bipolar disorders, mood disorders, major depression, resistant depression, anxiety disorders, Alzheimer's disease, autism, Parkinson's disease, chronic pain, borderline personality disorder, sleep disturbances, chronic fatigue syndrome, stiffness, antiinflammatory effects in arthritis and balance problems, epilepsy and neurodevelopmental disorders with co morbid epilepsy. In addition to the reversal of L-687,414 induced hyperlocomotion experiment as described above, some compounds of the present invention have been tested in SmartCube®, an automated system in which the behaviors of compound-treated mice in response to multiple challenges are captured by digital video and analyzed with computer algorithms (Roberds et al., Frontiers in Neuroscience, 2011, Vol. 5, Art. 103, 1-4; Vadim Alexandrov, Dani Brunner, Taleen Hanania, Emer Leahy Eur. J. Pharmacol. 2015, 750, 82-99). In this way, the neuro-pharmacological effects of a test compound can be predicted by similarity to major classes of compounds, such as antipsychotics, anxiolytics and antidepressants.
SmartCube® was used to compare the behavioral signature of a test compound to a database of behavioral signatures obtained from a large set of clinically approved reference drugs, grouped per indications. In this way, the neuro-pharmacological effects of a test compound can be predicted by similarity to major classes of compounds, such as antipsychotics, anxiolytics and antidepressants. This approach is ideally suited to screen collections of existing drugs or drug candidates with previously unknown neuropharmacology, which could expedite the development of new and unexpected treatments for psychiatric disorders.
Some compounds of the present invention were injected i.p. at different doses 15 minutes before the test. At least 8 mice were used in each treatment group. Digital videos of the subjects were processed with computer vision algorithms to extract over 2000 dependent measures including frequency and duration of many different behavioral states. The results of the classifications are presented as bar charts for each compound and dose (mg/kg), the Y-axis indicates the relative probability that the test compound will show efficacy in the specific CNS indication.
Compounds of the present invention show similar signatures to those of atypical antipsychotics. An independent analysis was performed on the unclassified data to determine the similarity of the example compounds to active doses of known atypical antipsychotics. For this analysis, we use discrimination rate as the measure of separability between the two drugs, i.e. one drug's “distinguishability” from another. A rate equal to 50% (or 0.5) corresponds to zero distinguishability. […] In most cases, the example compounds show a similarity to risperidone, clozapine and olanzapine with a discrimination rate of ≤0.70.

[4] = SmartCube, test compound at 3 mg/kg i.p., rate of 0.70 or lower = similar

IC50 [1]: 438 nM
Compound: COc1cncc(N2C(=O)C(C)(C)c3ccc(-c4cnc(C)nc4)cc32)c1 [Example 2, 1-(5-Methoxypyridin-3-yl)-3,3-dimethyl-6-(2-methylpyrimidin-5-yl)indolin-2-one]
Inhibition, ip of L-687,414-induced hyperlocomotion [2]: 93.6%
discrimination rate vs Clozapine (1.0 mg/kg) [3, 4]: 0.58
discrimination rate vs Olanzapine (0.25 mg/kg) [3, 4]: 0.68
discrimination rate vs Risperidone (0.06 mg/kg) [3, 4]: 0.51
SmartCube behavioral signature classification ([3]; mice, result in words): similarity to atypical antipsychotics
